system: HCV 1b-Con1 replicon; assay: HCV 1b-Con1 replicon assay in the presence of 5% FBS; type: cell-based; conditions: Hepatitis C virus

Q: Which EC50 does the source give for `COC(=O)N[C@H](C(=O)N1CCC[C@H]1c1nc2cc([C@H]3CC[C@H](c4ccc5[nH]c(C6CCCC6)nc5c4)N3c3cc(F)c(N4CCC(c5ccccc5)CC4)c(F)c3)ccc2[nH]1)C(C)C` [Example 11.2, methyl {(2S)-1-[(2S)-2-(5-{(2R,5R)-5-(2-cyclopentyl-1H-benzimidazol-5-yl)-1-[3,5-difluoro-4-(4-phenylpiperidin-1-yl)phenyl]pyrrolidin-2-yl}-1H-benzimidazol-2-yl)pyrrolidin-1-yl]-3-methyl-1-oxobutan-2-yl}carbamate] here?
A: Its EC50 is < 0.1 nM.

Q: With `COC(=O)N[C@H](C(=O)N1CCC[C@H]1c1nc2c(Cl)c([C@H]3CC[C@H](c4ccc5[nH]c([C@@H]6CCCN6C(=O)[C@@H](NC(=O)OC)C(C)C)nc5c4Cl)N3c3ccc(C(C)(C)C)cc3)ccc2[nH]1)C(C)C` [Example 6.5, methyl {(2S)-1-[(2S)-2-{5-[(2R,5R)-1-(4-tert-butylphenyl)-5-{4-chloro-2-[(2S)-1-{(2S)-2-[(methoxycarbonyl)amino]-3-methylbutanoyl}pyrrolidin-2-yl]-1H-benzimidazol-5-yl}pyrrolidin-2-yl]-4-chloro-1H-benzimidazol-2-yl}pyrrolidin-1-yl]-3-methyl-1-oxobutan-2-yl}carbamate] as the compound, how does the EC50 read?
A: The EC50 was < 0.1 nM.

Q: Which EC50 does the source give for `COC(=O)N[C@H](C(=O)N1CCC[C@H]1c1nc2cc([C@H]3CC[C@H](c4cc5nc([C@@H]6CCCN6C(=O)[C@@H](NC(=O)OC)C(C)C)[nH]c5cc4F)N3c3cc(F)c(N4CCC(C5CCCCC5)CC4)c(F)c3)c(F)cc2[nH]1)C(C)C` [Example 4.54, methyl {(2S)-1-[(2S)-2-{5[(2R,5R)-1-[4-(4-cyclohexylpiperidin-1-yl)-3,5-difluorophenyl]-5-{6-fluoro-2-[(2S)-1-{(2S)-2-[(methoxycarbonyl)amino]-3-methylbutanoyl}pyrrolidin-2-yl]-1H-benzimidazol-5-yl}pyrrolidin-2-yl]-6-fluoro-1H-benzimidazol-2-yl}pyrrolidin-1-yl]-3-methyl-1-oxobutan-2-yl}carbamate] here?
A: The EC50 was < 0.1 nM.

Q: Which EC50 does the source give for `COC(=O)N[C@H](C(=O)N1CCC[C@H]1c1nc2cc([C@H]3CC[C@H](c4ccc5[nH]c([C@@H]6CCCN6C(=O)[C@@H](NC(=O)OC)C6CCCCC6)nc5c4)N3c3cc(F)c(N4CCC(c5ccccc5)CC4)c(F)c3)ccc2[nH]1)C1CCCCC1` [Example 3.22, dimethyl ({(2R,5R)-1-[3,5-difluoro-4-(4-phenylpiperidin-1-yl)phenyl]pyrrolidine-2,5-diyl}bis{1H-benzimidazole-5,2-diyl(2S)pyrrolidine-2,1-diyl [(1S)-1-cyclohexyl-2-oxoethane-2,1-diyl]})biscarbamate] here?
A: Its EC50 is < 0.1 nM.

Q: `COC(=O)N[C@H](C(=O)N1CCC[C@H]1c1nc2cc([C@H]3CC[C@H](c4cc5nc([C@@H]6CCCN6C(=O)[C@@H](NC(=O)OC)C6CCOCC6)[nH]c5cc4F)N3c3cc(F)c(N4CCC(c5ccccc5)CC4)c(F)c3)c(F)cc2[nH]1)C1CCOCC1` [Example 4.39, dimethyl ({(2R,5R)-1-[3,5-difluoro-4-(4-phenylpiperidin-1-yl)phenyl]pyrrolidine-2,5-diyl}bis{(6-fluoro-1H-benzimidazole-5,2-diyl)(2S)pyrrolidine-2,1-diyl[(1S)-2-oxo-1-(tetrahydro-2H-pyran-4-yl)ethane-2,1-diyl]})biscarbamate] was tested. Which EC50 did it give?
A: The EC50 was < 0.1 nM.

Q: With `COC(=O)N[C@H](C(=O)N1CCC[C@H]1c1nc2ccc([C@H]3CC[C@H](c4ccc5nc([C@@H]6CCCN6C(=O)[C@@H](NC(=O)OC)C6CC6)[nH]c5c4)N3c3ccc(C(C)(C)C)cc3)cc2[nH]1)C1CC1` [Example 4.16, dimethyl ([(2R,5R)-1-(4-tert-butylphenyl)pyrrolidine-2,5-diyl]bis{1H-benzimidazole-6,2-diyl(2S)pyrrolidine-2,1-diyl [(1S)-1-cyclopropyl-2-oxoethane-2,1-diyl]}) biscarbamate] as the compound, how does the EC50 read?
A: Its EC50 is < 0.1 nM.

Q: `COC(=O)N[C@H](C(=O)N1C[C@@H](F)C[C@H]1c1nc2cc([C@H]3CC[C@H](c4ccc5[nH]c([C@@H]6C[C@H](F)CN6C(=O)[C@@H](NC(=O)OC)C(C)C)nc5c4)N3c3cc(F)c(N4CCCCC4)c(F)c3)ccc2[nH]1)C(C)C` [Example 3.8, methyl {(2S)-1-[(2S,4S)-2-{5-[(2R,5R)-1-[3,5-difluoro-4-(piperidin-1-yl)phenyl]-5-{2-[(2S,4S)-4-fluoro-1-{(2S)-2-[(methoxycarbonyl)amino]-3-methylbutanoyl}pyrrolidin-2-yl]-1H-benzimidazol-5-yl}pyrrolidin-2-yl]-1H-benzimidazol-2-yl}-4-fluoropyrrolidin-1-yl]-3-methyl-1-oxobutan-2-yl}carbamate] was tested. Which EC50 did it give?
A: Its EC50 is < 0.1 nM.

Q: With `COC(=O)N[C@H](C(=O)N1CCC[C@H]1c1nc2ccc([C@H]3CC[C@H](c4ccc5nc([C@@H]6CCCN6C(=O)[C@@H](NC(=O)OC)C(C)C)[nH]c5c4)N3c3cc(F)c(N4CCC5(CCCC5)CC4)c(F)c3)cc2[nH]1)C(C)C` [Example 2.11, methyl {(2S)-1-[(2S)-2-{5-[(2R,5R)-1-[4-(8-azaspiro[4.5]dec-8-yl)-3,5-difluorophenyl]-5-{2-[(2S)-1-{(2S)-2-[(methoxycarbonyl)amino]-3-methylbutanoyl}pyrrolidin-2-yl]-1H-benzimidazol-5-yl}pyrrolidin-2-yl]-1H-benzimidazol-2-yl}pyrrolidin-1-yl]-3-methyl-1-oxobutan-2-yl}carbamate] as the compound, how does the EC50 read?
A: Its EC50 is < 0.1 nM.

Q: How did the EC50 turn out when `COC(=O)N[C@H](C(=O)N1CCC[C@H]1c1nc2cc([C@H]3CC[C@H](c4ccc5[nH]c([C@@H]6CCCN6C(=O)[C@@H](NC(=O)OC)C(C)C)nc5c4)N3c3ccc(N4CCCCC4=O)cc3)ccc2[nH]1)C(C)C` [Example 1.2, methyl {(2S)-1-[(2S)-2-(5-{(2R,5R)-5-{2-[(2S)-1-{(2S)-2-[(methoxycarbonyl)amino]-3-methylbutanoyl}pyrrolidin-2-yl]-1H-benzimidazol-5-yl}-1-[4-(2-oxopiperidin-1-yl)phenyl]pyrrolidin-2-yl}-1H-benzimidazol-2-yl)pyrrolidin-1-yl]-3-methyl-1-oxobutan-2-yl}carbamate] was run?
A: The EC50 was > 10 nM.

Q: For `COC(=O)NC(C(=O)N1CCC[C@H]1c1nc2cc([C@H]3CC[C@H](c4ccc5[nH]c([C@@H]6CCCN6C(=O)C(NC(=O)OC)C(C)C)nc5c4)N3c3cc(F)c(N4CCC(F)CC4)c(F)c3)ccc2[nH]1)C(C)C` (stereo partly drawn) [Example 1.6, methyl {1-[(2S)-2-{5-[(2R,5R)-1-[3,5-difluoro-4-(4-fluoropiperidin-1-yl)phenyl]-5-{2-[(2S)-1-{2-[(methoxycarbonyl)amino]-3-methylbutanoyl}pyrrolidin-2-yl]-1H-benzimidazol-5-yl}pyrrolidin-2-yl]-1H-benzimidazol-2-yl}pyrrolidin-1-yl]-3-methyl-1-oxobutan-2-yl}carbamate], which EC50 is on record?
A: Its EC50 is < 0.1 nM.

Q: Which EC50 does the source give for `COC(=O)N[C@H](C(=O)N1CCC[C@H]1c1nc2cc([C@H]3CC[C@H](c4ccc5[nH]c([C@@H]6CCCN6C(=O)[C@@H](NC(=O)OC)C6CCOCC6)nc5c4)N3c3ccc(N4CCC(c5ccccc5)CC4)c(F)c3)ccc2[nH]1)C(C)C` [Example 3.21, methyl [(1S)-2-[(2S)-2-{5-[(2R,5R)-1-[3-fluoro-4-(4-phenylpiperidin-1-yl)phenyl]-5-{2-[(2S)-1-{(2S)-2-[(methoxycarbonyl)amino]-3-methylbutanoyl}pyrrolidin-2-yl]-1H-benzimidazol-5-yl}pyrrolidin-2-yl]-1H-benzimidazol-2-yl}pyrrolidin-1-yl]-2-oxo-1-(tetrahydro-2H-pyran-4-yl)ethyl]carbamate] here?
A: The EC50 was < 0.1 nM.

Q: Which EC50 does the source give for `COC(=O)N[C@H](C(=O)N1CCC[C@H]1c1nc2ccc([C@H]3CC[C@H](c4ccc5nc([C@@H]6CCCN6C(=O)[C@@H](NC(=O)OC)C(C)C)[nH]c5c4)N3c3cc(F)c(N4CCC(Cc5ccccc5)CC4)c(F)c3)cc2[nH]1)C(C)C` [Example 4.47, methyl {(2S)-1-[(2S)-2-{6-[(2R,5R)-1-[4-(4-benzylpiperidin-1-yl)-3,5-difluorophenyl]-5-{2-[(2S)-1-{(2S)-2-[(methoxycarbonyl)amino]-3-methylbutanoyl}pyrrolidin-2-yl]-1H-benzimidazol-6-yl}pyrrolidin-2-yl]-1H-benzimidazol-2-yl}pyrrolidin-1-yl]-3-methyl-1-oxobutan-2-yl}carbamate] here?
A: The EC50 was < 0.1 nM.

Q: How did the EC50 turn out when `COC(=O)N[C@H](C(=O)N1CCC[C@H]1c1nc2cc([C@H]3CC[C@H](c4cc5nc([C@@H]6CCCN6C(=O)[C@@H](NC(=O)OC)C(C)C)[nH]c5cc4F)N3c3cc(F)c(N4CCC(C(F)(c5ccccc5)c5ccccc5)CC4)c(F)c3)c(F)cc2[nH]1)C(C)C` [Example 4.37, methyl {(2S)-1-[(2S)-2-{5-[(2R,5R)-1-(3,5-difluoro-4-{4-[fluoro(diphenyl)methyl]piperidin-1-yl}phenyl)-5-{6-fluoro-2-[(2S)-1-{(2S)-2-[(methoxycarbonyl)amino]-3-methylbutanoyl}pyrrolidin-2-yl]-1H-benzimidazol-5-yl}pyrrolidin-2-yl]-6-fluoro-1H-benzimidazol-2-yl}pyrrolidin-1-yl]-3-methyl-1-oxobutan-2-yl}carbamate] was run?
A: Its EC50 is < 0.1 nM.

Q: For `COC(=O)N[C@H](C(=O)N1CCC[C@H]1c1nc2cc([C@H]3CC[C@H](c4ccc5[nH]c([C@@H]6CCCN6C(=O)[C@@H](NC(=O)OC)C6CCOCC6)nc5c4)N3c3cc(F)c(N4CCCCC4)c(F)c3)ccc2[nH]1)C1CCOCC1` [Example 3.18, dimethyl ({(2R,5R)-1-[3,5-difluoro-4-(piperidin-1-yl)phenyl]pyrrolidine-2,5-diyl}bis{1H-benzimidazole-5,2-diyl(2S)pyrrolidine-2,1-diyl [(1S)-2-oxo-1-(tetrahydro-2H-pyran-4-yl)ethane-2,1-diyl]})biscarbamate], which EC50 is on record?
A: Its EC50 is < 0.1 nM.

Q: `COC(=O)N[C@H](C(=O)N1CCC[C@H]1c1nc2cc([C@H]3CC[C@H](c4ccc5[nH]c([C@@H]6CCCN6C(=O)[C@@H](NC(=O)OC)C(C)C)nc5c4)N3c3cc(F)c(N4CCC(C(C)C)CC4)c(F)c3)ccc2[nH]1)C(C)C` [Example 4.22, methyl {(2S)-1-[(2S)-2-{5-[(2R,5R)-1-{3,5-difluoro-4-[4-(propan-2-yl)piperidin-1-yl]phenyl}-5-{2-[(2S)-1-{(2S)-2-[(methoxycarbonyl)amino]-3-methylbutanoyl}pyrrolidin-2-yl]-1H-benzimidazol-5-yl}pyrrolidin-2-yl]-1H-benzimidazol-2-yl}pyrrolidin-1-yl]-3-methyl-1-oxobutan-2-yl}carbamate] was tested. Which EC50 did it give?
A: Its EC50 is < 0.1 nM.

Reference: US20120220562A1, “Anti-Viral Compounds” (ABBOTT LABAORATORIES, priority 2011, published 2012)
